From US20240174642A1, “HETEROCYCLIC COMPOUNDS CAPABLE OF ACTIVATING STING” (Boehringer Ingelheim International GmbH, priority 2022, published 2024)
Where two headings read alike, the source gives them in different places.

How the values were obtained:
dog STING (dSTING) = assay: Dog differential scanning fluorimetry (DSF) assay, thermal shift of dog STING protein; assay type: binding; settings: 100 μM compound, 3 μM recombinant dog STING (residues 149 to 375), 5× SYPRO Orange, 2% DMSO
Description: The protein used for the biophysical experiments was a recombinant dog STING protein comprising its cytosolic cGAMP binding ectodomain. A codon optimized DNA sequence (for expression in Escherichia coli) encoding amino acid residues 149 to 375 of dog STING was synthesized by GeneArt (Regensburg, Germany) and inserted into a pET17b E. coli expression vector. The protein construct encodes an N-terminal 8× His-tag followed by tobacco etch virus protease (TEV) cleavage site and the above STING gene sequence. The resulting protein sequence for the used dog STING protein (SEQ ID No. 1) is listed below:
For expression of the above recombinant dog STING, the construct was transformed into E. coli BL21 DE3 strain and grown in shake flasks in LB-medium at 15° C. Expression was induced by addition of isopropyl β-D-1-thiogalactopyranoside to a final concentration of 1 mM and cultures shaken overnight. Cell pellets were centrifuged and stored at −70° C. until further use. Protein was purified by cell thawing in lysis buffer (20 mM TRIS-HCl, pH 8, 500 mM NaCl, 1 mM DTT, 0.5 mg/ml lysozyme, Complete Protease Inhibitor (Roche) and DNase (Roche)), followed by metal affinity purification using Ni-NTA resins and elution buffer consisting of 20 mM TRIS-HCl, pH 8, 500 mM NaCl, 1 mM DTT, 300 mM imidazole. Cleavage of the His-Tag using TEV-protease took place during dialysis in size exclusion buffer (20 mM TRIS-HCl, pH 8, 100 mM NaCl, 1 mM DTT) over night. To further purify the target protein a reverse Nickel affinity column was used and the flow through was applied to a size exclusion chromatography. The peak fraction was collected and concentrated to 5 mg/mL.
Dye fluorescence is quenched in aqueous environment and increases upon association of the dye with the hydrophobic parts of the unfolding protein. […] The inflection point of the curve represents the “melting” temperature of the protein (Tm) which is calculated numerically using the Boltzmann equation.
The thermal stability of the dog STING protein was measured in assay buffer containing 20 mM Tris, 150 mM NaCl at pH7.5. The assay uses 384-Well qPCR Plates (Catalog #781358, BRAND), Microseal®‘B’ Adhesive Seals for PCR Plates (Catalog #MSB-1001, BIO-RAD) and was run on a CFX384 Real-Time System (Bio-Rad). A DMSO stock solution of SYPRO orange (SIGMA 55692-500UL) was prepared. Compound stock solutions (10 mM in DMSO) were diluted 1:2 in DMSO to an intermediate compound concentration of 5 mM and then further diluted 1:40 in assay buffer resulting in a compound concentration of 125 μM and 2.5% DMSO. Fluorescent dye stock solution (5000× SYPRO Orange) was then mixed with target protein and buffer to a concentration of 15 μM Protein and 25× SYPRO Orange. 2 μl of this protein-dye-mixture was added to 8 μl compound solution. Final volume was 10 μL. 3-6 well positions were used as negative control (protein with 2% DMSO). The plates were prepared for duplicate measurement and centrifuged for 2 min at 1000 g. In the measurement, 160 cycles of 0.5° C. were used (temperature ramp 15 s/cycle, 15° C. to 95° C.).
Final Assay concentrations for compound characterization were 100 μM compound, 3 μM target protein, 5× SYPRO Orange, and 2% DMSO in 10 μl. All dispensing steps were performed using a HamiltonStar pipetting robot (Hamilton).
Dissociation curves were processed in Bio-Rad CFX Manager. Peak type was set to “negative”. Compound codes for screen were assigned in the plate layout.
Two replicates of TM measurements were averaged, and the standard deviation was calculated. In cases of SD>1.5° C. the measurement was repeated.
The melting point (Tm) obtained for STING protein alone was subtracted from T obtained for protein incubated with ligand to generate ΔTm values.

STING = assay: Dog whole blood (dWB) assay, IFNb secretion by ELISA; assay type: cell-based; settings: 4 h incubation at 37° C., % control relative to cGAMP stimulated control, read-out: EC50, cytokine secretion in dog whole blood (dWB) culture system as determined by canine Interferon-beta (IFNb) ELISA
Description: In this assay, freshly collected canine blood is incubated with a STING agonist, and interferon beta levels in the supernatant are quantified by ELISA. […] In accordance with the invention, a combination of a high dDSF and low dWB is especially favorable.
For the detection of STING activation in physiological environment dog whole blood (dWB) was stimulated by the cyclic dinucleotide cGAMP or a test compound. Pathway activity was monitored by measuring the IFNb production.
Compounds were delivered as 10 mM DMSO solution, diluted and transferred by using an Echo acoustic dispenser to the 384well assay plate (Greiner #781182), pre-filled with 10 μl 1× HBSS in each well (10× HBSS (+Ca/+Mg), #14065-049, Gibco). Typically, 8 concentrations were used with the highest concentration at 10 μM in the final assay volume followed by approximately 1:4 dilution steps. DMSO concentration was set to 0.1% in the final assay volume. The 384-well assay plate contained 20 test compounds and DMSO in control and cGAMP standard wells. The dog whole blood was collected as Na-Citrate blood (e.g., 3.8% in Monovettes from Sarstedt) and kept at 4° C. overnight until use in the assay. 80 μl of the whole blood samples were transferred to each well of the 384-well assay plates filled with compound/1×HBSS. Blood plates were kept at room temperature for 60 minutes and continuous shaking with 450 rpm, covered with the lid, but not sealed. A 10× cGAMP assay solution was diluted from a 2 mM stock solution in 1×HBSS immediately before use at room temperature. 10 μl of the 10× cGAMP/HBSS were added to the high control wells, whereas HBSS only was added to all compound and low control wells. After covering assay plates with the lid, blood plates were kept for a 4 h incubation at 37° C. in the incubator, without shaking. For the detection of IFNb in dog plasma the ELISA Kit for Canine Interferon Beta (Biotrend #SEA222Ca) was used. Whole blood assay plates were centrifuged at 1000 g for 10 minutes at 8° C. 40 μl of supernatant was transferred with a 96 well pipetting robotics from the 384 well whole blood plate to the corresponding 96 well ELISA plate, pre-filled with […] assay diluent in each well. Plates were sealed with microplate seals and kept at 4° C. overnight again. ELISA plates were brought to room temperature, followed by a 1 h incubation at 37° C. in the incubator. Detection Reagent A working solution was prepared by diluting Detection Reagent A 1:100 in Assay Reagent A. Liquid was then removed from the 96 well ELISA plate to add 100 μL Detection Reagent A working solution to each well. ELISA plates were covered with the plate sealer and incubated for 1 hour at 37° C. in the incubator. The 1× Wash buffer was prepared by diluting the 30× Wash Buffer Concentrate in H2O. Detection Reagent B working solution was prepared by diluting Detection Reagent B 1:100 in Assay Reagent B. The ELISA plates were washed three times with 350 μl wash buffer and afterwards inverted and blotted against absorbent paper to remove any liquid. 100 μL of Detection Reagent B working solution was added to each well of the ELISA plates, which are then covered with the plate sealer and incubated for 30 minutes at 37° C. in the incubator. After incubation the ELISA assay plates were washed five times with 350 μl wash buffer and were again inverted and blotted against absorbent paper to remove any remaining liquid. 90 μL of TMB Substrate was added to each well of the ELISA plates, which were then covered with the plate sealer and incubated for 15 minutes at 37° C. in the incubator. The reaction was stopped by adding 50 μL stop solution and absorbance was measured at 450 nm immediately.
For data evaluation and calculation, % control calculation of each well was based on the mean of high (cGAMP stimulated control) and mean of low (unstimulated control) controls by using the following standard 4 parameter logistic regression formula: […]

## Cc1cccc2c(-c3cccc4nn(C)cc34)nn(-c3ccc(N4C[C@@H]5CC[C@H]4C[C@H]5C(=O)O)nc3)c12 (single isomer, unassigned) [Example 7]
Dog STING (dSTING)
  Delta TM, interaction with dog STING as determined by DSF (dDSF): 15.5 °C

## Cc1cccc2c(-c3cccc4nn(C)cc34)nn(-c3ccc(N4C[C@H]5CC[C@@H]4C[C@@H]5C(=O)O)nc3)c12 (single isomer, unassigned) [Example 8]
Dog STING (dSTING)
  Delta TM, interaction with dog STING as determined by DSF (dDSF): 24.8 °C

## Cc1cccc2c(-c3cccc4nn(C)cc34)nn(-c3ccc(N4C[C@@H]5CC[C@H]4C[C@@H]5C(=O)O)nc3)c12 (single isomer, unassigned) [Example 9]
STING; Canis lupus familiaris
  EC50: 652 nM
Dog STING (dSTING)
  Delta TM, interaction with dog STING as determined by DSF (dDSF): 33.8 °C

## Cc1cccc2c(-c3cccc4nn(C)cc34)nn(-c3ccc(N4C[C@H]5CC[C@@H]4C[C@H]5C(=O)O)nc3)c12 (single isomer, unassigned) [Example 10]
STING; Canis lupus familiaris
  EC50: 185 nM
Dog STING (dSTING)
  Delta TM, interaction with dog STING as determined by DSF (dDSF): 35.8 °C

## CC(=O)N1C[C@H]2CC[C@@H]1CN2c1ccc(-n2nc(-c3cccc4nn(C)cc34)c3cccc(C)c32)cn1 (single isomer, unassigned) [Example 14]
STING; Canis lupus familiaris
  EC50: 2920 nM
Dog STING (dSTING)
  Delta TM, interaction with dog STING as determined by DSF (dDSF): 23.8 °C

## CC(=O)N1C[C@@H]2CC[C@H]1CN2c1ccc(-n2nc(-c3cccc4nn(C)cc34)c3cccc(C)c32)cn1 (single isomer, unassigned) [Example 15]
STING; Canis lupus familiaris
  EC50: 95.1 nM
Dog STING (dSTING)
  Delta TM, interaction with dog STING as determined by DSF (dDSF): 30.0 °C

## Cc1cccc2c(-c3cccc4nn(C)cc34)nn(-c3ccc(N4C[C@@H]5C[C@H]4C[C@H]5C(=O)O)nc3)c12 (single isomer, unassigned) [Example 18]
STING; Canis lupus familiaris
  EC50: 519 nM
Dog STING (dSTING)
  Delta TM, interaction with dog STING as determined by DSF (dDSF): 31.5 °C

## Cc1cccc2c(-c3cccc4nn(C)cc34)nn(-c3ccc(N4C[C@H]5C[C@@H]4C[C@@H]5C(=O)O)nc3)c12 (single isomer, unassigned) [Example 19]
STING; Canis lupus familiaris
  EC50: 278 nM
Dog STING (dSTING)
  Delta TM, interaction with dog STING as determined by DSF (dDSF): 33.5 °C

## Cc1cccc2c(-c3cccc4nn(C)cc34)nn(-c3ccc(N4CC[C@H](CC(=O)O)C4)nc3)c12 [Example 1, 2-[(3R)-1-(5-{2″,7-dimethyl-1H,2″H-[3,4″-biindazol]-1-yl}pyridin-2-yl)pyrrolidin-3-yl]acetic acid]
STING; Canis lupus familiaris
  EC50: 308 nM

## Cc1cccc2c(-c3cccc4nn(C)cc34)nn(-c3ccc(N4CC[C@@H](CC(=O)O)C4)nc3)c12 [Example 2, 2-[(3S)-1-(5-{2″,7-dimethyl-1H,2″H-[3,4″-biindazol]-1-yl}pyridin-2-yl)pyrrolidin-3-yl]acetic acid]
STING; Canis lupus familiaris
  EC50: 212 nM
Dog STING (dSTING)
  Delta TM, interaction with dog STING as determined by DSF (dDSF): 33.3 °C

## Cc1cccc2c(-c3cccc4nn(C)cc34)nn(-c3ccc(N4CCOC(CC(=O)O)C4)nc3)c12 (stereo not drawn) [Example 3, 2-[4-(5-{2′,7-dimethyl-1H,2′H-[3,4′-biindazol]-1-yl}pyridin-2-yl)morpholin-2-yl]acetic acid]
STING; Canis lupus familiaris
  EC50: 3060 nM
Dog STING (dSTING)
  Delta TM, interaction with dog STING as determined by DSF (dDSF): 26.1 °C

## Cc1cccc2c(-c3cccc4nn(C)cc34)nn(-c3ccc(N4CC5CC4CC5C(=O)O)nc3)c12 (stereo not drawn) [Example 4, 2-(5-{2″,7-dimethyl-1H,2″H-[3,4″-biindazol]-1-yl}pyridin-2-yl)-2-azabicyclo[2.2.1]heptane-5-carboxylic acid]
STING; Canis lupus familiaris
  EC50: 704 nM
Dog STING (dSTING)
  Delta TM, interaction with dog STING as determined by DSF (dDSF): 29.0 °C

## Cc1cccc2c(-c3cccc4nn(C)cc34)nn(-c3ccc(N4CC5CCC4CC5C(=O)O)nc3)c12 (stereo not drawn) [Example 6, 2-(5-{2′,7-dimethyl-1H,2′H-[3,4′-biindazol]-1-yl}pyridin-2-yl)-2-azabicyclo[2.2.2]octane-5-carboxylic acid]
STING; Canis lupus familiaris
  EC50: 417 nM
Dog STING (dSTING)
  Delta TM, interaction with dog STING as determined by DSF (dDSF): 34.0 °C

## CC(=O)N1C[C@H]2C[C@@H]1CN2c1ccc(-n2nc(-c3cccc4nn(C)cc34)c3cccc(C)c32)cn1 [Example 11, 1-[(1R,4R)-5-(5-{2″,7-dimethyl-1H,2″H-[3,4″-biindazol]-1-yl}pyridin-2-yl)-2,5-diazabicyclo[2.2.1]heptan-2-yl]ethan-1-one]
STING
  EC50: 620 nM
Dog STING (dSTING)
  Delta TM, interaction with dog STING as determined by DSF (dDSF): 28.3 °C

## CC(=O)N1CC2CCC1CN2c1ccc(-n2nc(-c3cccc4nn(C)cc34)c3cccc(C)c32)cn1 (stereo not drawn) [Example 13, 1-[5-(5-{2′,7-dimethyl-1H,2′H-[3,4′-biindazol]-1-yl}pyridin-2-yl)-2,5-diazabicyclo[2.2.2]octan-2-yl]ethan-1-one]
STING; Canis lupus familiaris
  EC50: 282 nM
Dog STING (dSTING)
  Delta TM, interaction with dog STING as determined by DSF (dDSF): 28.3 °C
